Measurements taken from ChEMBL document CHEMBL4304800, “C4-Phenylthio β-lactams: Effect of the chirality of the β-lactam ring on antimicrobial activity” (2019).
≈ marks a conversion by molar mass, not a printed value. Calls of active or inactive are those of the source. The rule behind the calls is not given here.

How the values were obtained:
[1] = tested on: Moraxella catarrhalis; assay: Bactericidal activity against serine beta-lactamase producing Moraxella catarrhalis incubated in MH broth for 24 to 48 hrs by microbroth dilution method; assay type: functional
[2] = tested on: Mycobacterium tuberculosis; assay: Antitubercular activity against serine beta-lactamase producing Mycobacterium tuberculosis H37Rv after 14 days in presence of middlebrook 7H9/BSA medium by eleven fold serial dilution method; assay type: functional; settings: 336 h
[3] = tested on: Mycobacterium tuberculosis; assay: Antitubercular activity against clinical drug sensitive Mycobacterium tuberculosis K14b00DS after 14 days in presence of middlebrook 7H9/BSA medium by eleven fold serial dilution method; assay type: functional; settings: 336 h
[4] = tested on: Mycobacterium tuberculosis; assay: Antitubercular activity against serine beta-lactamase producing Mycobacterium tuberculosis H37Rv after 14 days in presence of GAST/Fe medium by eleven fold serial dilution method; assay type: functional; settings: 336 h
[5] = tested on: Mycobacterium tuberculosis; assay: Antitubercular activity against serine beta-lactamase producing Mycobacterium tuberculosis H37Rv after 14 days in presence of Chol/BSA medium by eleven fold serial dilution method; assay type: functional; settings: 336 h
[6] = tested on: Mycobacterium tuberculosis; assay: Antitubercular activity against serine beta-lactamase producing Mycobacterium tuberculosis H37Rv after 14 days in presence of Glu/BSA medium by eleven fold serial dilution method; assay type: functional; settings: 336 h
[7] = tested on: Mycobacterium tuberculosis; assay: Antitubercular activity against serine beta-lactamase producing Mycobacterium tuberculosis H37Rv after 14 days in presence of DPPC/BSA medium by eleven fold serial dilution method; assay type: functional; settings: 336 h
[8] = tested on: Mycobacterium tuberculosis; assay: Antitubercular activity against serine beta-lactamase producing Mycobacterium tuberculosis H37Rv after 14 days in presence of Glu/Cas medium by eleven fold serial dilution method; assay type: functional; settings: 336 h
[9] = tested on: Mycobacterium tuberculosis; assay: Antitubercular activity against serine beta-lactamase producing Mycobacterium tuberculosis H37Rv after 14 days in presence of DPCC/Cas medium by eleven fold serial dilution method; assay type: functional; settings: 336 h
[10] = tested on: Mycobacterium tuberculosis; assay: (§1) Bactericidal activity against serine beta-lactamase producing Mycobacterium tuberculosis H37Rv assessed as induction of microbial kill at MIC preincubated in middlebrook 7H9 medium for 7 days and further incubated in middlebrook 7H11/BSA supplemented with OADC for 3 weeks by serial dilution based colony counting method; assay type: functional
[11] = tested on: Mycobacterium tuberculosis; assay: as §1, with “reduction in” for “induction of”, “cell number” for “kill”; assay type: functional, organism-based
[12] = tested on: Mycobacterium tuberculosis; assay: Bactericidal activity against non-replicating persistant form of Mycobacterium tuberculosis H37Rv assessed as minimum anaerobicidal concentration by measuring log reduction in viable microbe number at 200 ug/ml preincubated for 7 days in anaerobic condition post adaptation to decreasing oxygen levels and further incubated in middlebrook 7H11/BSA supplemented with ODAC for 4 to 5 weeks by serial dilution based assay; assay type: functional

C[C@H](NC(=O)N1C(=O)C[C@@H]1Sc1ccc(C(F)(F)F)cc1)c1ccccc1
MBC [1]: 200 µg/mL (≈ 507 µM)
MIC [1]: 200 µg/mL (≈ 507 µM)
MIC99 [2]: 25 µg/mL
MIC [3]: 25 µg/mL

C[C@@H](NC(=O)N1C(=O)C[C@H]1Sc1ccc(F)cc1F)c1ccccc1
MBC [1]: 12.5 µg/mL (≈ 34.5 µM)
MIC [1]: 12.5 µg/mL (≈ 34.5 µM)
MIC99 [2]: 50 µg/mL
MIC99 [4]: 0.3 µg/mL
MIC [3]: 25 µg/mL

O=C1CC(Sc2ccc(F)cc2Cl)N1C(=O)NCc1ccccc1 (racemic)
MBC [1]: 12.5 µg/mL (≈ 34.3 µM)
MIC99 [2]: 37.5 µg/mL
MIC99 [4]: 0.3 µg/mL
MIC [5]: 18.8 µg/mL
MIC [6]: 25 µg/mL
MIC [7]: 12.5 µg/mL
MIC [8]: 1.5 µg/mL
MIC [9]: 0.78 µg/mL

C[C@H](NC(=O)N1C(=O)C[C@H]1Sc1ccc(F)cc1F)c1ccccc1
MBC [1]: 50 µg/mL (≈ 138 µM)
MIC [1]: 50 µg/mL (≈ 138 µM)
MIC99 [2]: 50 µg/mL
MIC99 [4]: 0.7 µg/mL
MIC [3]: 50 µg/mL

O=C1CC(Sc2ccc(C(F)(F)F)cc2)N1C(=O)NCc1ccccc1 (racemic)
MIC [1]: 1.6 µg/mL (≈ 4.21 µM)
MIC99 [2]: 12.5 µg/mL
MIC [3]: 25 µg/mL
MIC [5]: 25 µg/mL
MIC [6]: 25 µg/mL
MIC [7]: 25 µg/mL
MIC [8]: 1.5 µg/mL
MIC [9]: 0.78 µg/mL

C[C@@H](NC(=O)N1C(=O)C[C@@H]1Sc1ccc(F)cc1F)c1ccccc1
MBC [1]: 50 µg/mL (≈ 138 µM)
MIC [1]: 50 µg/mL (≈ 138 µM)
MIC99 [2]: 25 µg/mL
MIC99 [4]: 0.7 µg/mL
MIC [3]: 25 µg/mL

NNC(=O)c1ccncc1 [ISONIAZID]
MIC99 [2]: 0.07 µg/mL
MIC99 [4]: 0.02 µg/mL
MIC [3]: 0.08 µg/mL

C[C@@H](NC(=O)N1C(=O)C[C@H]1Sc1c(F)c(F)c(F)c(F)c1F)c1ccccc1
MBC [1]: 3.1 µg/mL (≈ 7.45 µM)
MIC [1]: 3.1 µg/mL (≈ 7.45 µM)
MIC99 [2]: > 100 µg/mL
MIC99 [4]: 0.3 µg/mL
LCK [10]: <3
Activity [11]: Active
Activity [12]: 1 log10CFU/ml

O=C1CC(Sc2cccc(C(F)(F)F)c2)N1 (racemic)
MBC [1]: 1.5 µg/mL (≈ 6.07 µM)
MIC [1]: 1.5 µg/mL (≈ 6.07 µM)
MIC99 [2]: 25 µg/mL
MIC [5]: 12.5 µg/mL
MIC [6]: 25 µg/mL
MIC [7]: 12.5 µg/mL
MIC [8]: 12.5 µg/mL
MIC [9]: 0.78 µg/mL

C[C@@H](NC(=O)N1C(=O)C[C@@H]1Sc1c(F)c(F)c(F)c(F)c1F)c1ccccc1
MBC [1]: 12.5 µg/mL (≈ 30 µM)
MIC [1]: 12.5 µg/mL (≈ 30 µM)
MIC99 [2]: > 100 µg/mL
LCK [10]: <3
Activity [11]: Active
Activity [12]: 1 log10CFU/ml

O=C1CC(Sc2c(F)c(F)c(F)c(F)c2F)N1C(=O)NCc1ccccc1 (racemic)
MBC [1]: 6.2 µg/mL (≈ 15.4 µM)
MIC99 [2]: 12.5 µg/mL
LCK [10]: <3
Activity [11]: Active
MIC [5]: 25 µg/mL
MIC [6]: 6.25 µg/mL
MIC [7]: 25 µg/mL
MIC [8]: 1.5 µg/mL
MIC [9]: 0.78 µg/mL

O=C1CC(Sc2ccc(F)c(F)c2)N1 (racemic)
MIC99 [2]: 50 µg/mL
LCK [10]: <3
Activity [11]: Active

C[C@H](NC(=O)N1C(=O)C[C@H]1Sc1c(F)c(F)c(F)c(F)c1F)c1ccccc1
MBC [1]: 50 µg/mL (≈ 120 µM)
MIC [1]: 50 µg/mL (≈ 120 µM)
MIC99 [2]: 100 µg/mL
MIC99 [4]: 0.7 µg/mL
LCK [10]: <3
Activity [11]: Active

C[C@H](NC(=O)N1C(=O)C[C@H]1Sc1ccc(F)cc1)c1ccccc1
MBC [1]: 50 µg/mL (≈ 145 µM)
MIC [1]: 50 µg/mL (≈ 145 µM)
MIC99 [2]: 50 µg/mL
MIC99 [4]: 12.5 µg/mL

C[C@@H](NC(=O)N1C(=O)C[C@@H]1Sc1ccccc1F)c1ccccc1
MBC [1]: 50 µg/mL (≈ 145 µM)
MIC [1]: 25 µg/mL (≈ 72.6 µM)
MIC99 [2]: 25 µg/mL
MIC99 [4]: 12.5 µg/mL

COc1ccccc1S[C@@H]1CC(=O)N1C(=O)N[C@@H](C)c1ccccc1
MBC [1]: 100 µg/mL (≈ 281 µM)
MIC [1]: 100 µg/mL (≈ 281 µM)
MIC99 [2]: 100 µg/mL
MIC99 [4]: 25 µg/mL

COc1ccccc1S[C@H]1CC(=O)N1C(=O)N[C@@H](C)c1ccccc1
MBC [1]: 50 µg/mL (≈ 140 µM)
MIC [1]: 50 µg/mL (≈ 140 µM)
MIC99 [2]: 25 µg/mL
MIC99 [4]: 6.2 µg/mL

C[C@H](NC(=O)N1C(=O)C[C@H]1Sc1ccc(F)c(Cl)c1)c1ccccc1
MBC [1]: 200 µg/mL (≈ 528 µM)
MIC [1]: 200 µg/mL (≈ 528 µM)
MIC99 [2]: 25 µg/mL
MIC99 [4]: 1.5 µg/mL
